From patent US20220056014A1, “PHENYLPYRROLIDINE COMPOUND AND USE THEREOF” (WUHAN HUMANWELL INNOVATIVE DRUG RESEARCH AND DEVELOPMENT …, priority 2018, published 2022) come the findings set out here.

Molecules are shown by their SMILES. pIC50: −log10 of the molar value.

One assay has as its target T1, PDE4B (Homo sapiens, UniProt Q07343).
T1 construct: purchased Enzo Life Sciences BML-SE522-0020
Nature of the assay: PDE4B enzyme activity assay (PDE-Glo Phosphodiesterase Assay Kit). The class given is biochemical. As to conditions: for IC50 (PDE4D)/IC50 (PDE4B): selectivity ratio. As to the method:
(§1) For the previously synthesized compounds, the inhibitory activity of the compounds against PDE4B and against PDE4D was tested by using PDE-Glo Phosphodiesterase Assay Kit (promega, V1361). In short, in accordance with the instructions of the kit, a concentrated stock solution (10 mM) the compound to be tested was first prepared with DMSO solvent, and the concentrated stock solution was then diluted into 10× working solutions with a Reaction buffer provided in the kit. With the Reaction buffer, on ice, PDE4B enzyme (Enzo Life Sciences, BML-SE522-0020) was diluted to a concentration of 1 ng/μl to obtain a PDE4B enzyme working solution, and PDE4D enzyme (Enzo Life Sciences, BML-SE523-0020) was diluted to a concentration of 4 ng/μl to obtain a PDE4D enzyme working solution. 1.5 μl of the PDE4B working solution (or PDE4D working solution) and 1 μl of the compound working solution were added to wells of 384-well plate (Corning, CLS3707), and incubated with shaking at room temperature for 5 min, followed by adding 2.5 μl of cAMP (in Reaction buffer, 2 μM) per well, incubating with shaking at room temperature for 20 min. 2.5 μl/well of 1× Termination Buffer, and then 2.5 μl/well of 1× Detection Buffer were added, and further incubated with shaking at room temperature for 20 min. 10 μl/well of 1× Kinase-Glo was added, and the plate was incubated with shaking at room temperature for 10 min, and bioluminescence was measured with PheraStar instrument. The experimental results were plotted with GraphPad Prism software, and fitted to calculate IC50 of each compound.

In a further assay the target is T2, PDE4D (Homo sapiens, UniProt Q08499).
T2 construct: purchased Enzo Life Sciences BML-SE523-0020
Nature of the assay: PDE4D enzyme activity assay (PDE-Glo Phosphodiesterase Assay Kit). The class given is biochemical. As to the method: as §1

In assay [1] the test system is LPS-induced secretion of TNFα in human PBMCs. Nature of the assay: LPS-induced secretion of TNFα in human PBMCs. It counts as cell-based. To be noted: 24 h, LPS 10 ng/ml. As to the method: Extraction process of peripheral blood mononuclear cells (PBMCs): one unit of human peripheral blood concentrate (concentrated from 200 cc peripheral blood) was sucked and added with 0.9% saline until a total volume reached 120 ml, and mixed homogenously. 15 ml Lymphoprep™ was added into 50 ml centrifuge tube, and then 30 ml of diluted blood concentrate was carefully and slowly added thereto, allowing the diluted blood to be stacked on the layered solution and preventing the diluted blood from being mixed into the separated solutions or breaking the surface of the separated solution, wherein a ratio of Lymphoprep™ to the diluted blood was 1:2. The centrifuge tubes were balanced and placed in a horizontal centrifuge (eppendorf, 5810R), and centrifuged at 800 g and 20° C. for 20 min. The centrifuge tubes were carefully taken out. PBMCs were absorbed by directly inserting the Pasteur pipette deep into the buffy coat. The obtained PBMCs were gently pipetted with 3 times the volume of 0.9% normal saline or PBS (without calcium or magnesium ions) to mix homogenously. After that, the cells were centrifuged at 250 g and 20° C. for 10 min, the supernatant was removed to remove the platelets remaining in the cell suspension. The obtained cell pellet was resuspended in 20 ml of PBS, and counted using trypan blue.
Compound screening by using PBMCs: the PBMC suspension obtained above was centrifuged to remove PBS, then resuspended in complete medium (RPMI1640+10% FBS+1% P/S) and counted. 100 μL/well of the cells was seeded at 5×10^4/well. Each of the compounds to be screened was prepared as 4 times the final concentration, which was added to the cells at 50 μL/well. The compound was pre-incubated for 30 min in advance of being added to the cells. Meanwhile, control wells to which the compound was not added were provided. A final stimulation concentration of LPS was 10 ng/ml, and LPS was formulated as 4 times the final stimulation concentration, and added to the cells at 50 μL/well. Meanwhile, control wells, i.e., wells without LPS were provided. The cells were incubated for 24 h, and 10% of the supernatant was collected for detection. The obtained supernatant was detected using Invitrogen's Human TNF-α kit (REF: 88-7346-88).

T1 sequence (Q07343 whole entry): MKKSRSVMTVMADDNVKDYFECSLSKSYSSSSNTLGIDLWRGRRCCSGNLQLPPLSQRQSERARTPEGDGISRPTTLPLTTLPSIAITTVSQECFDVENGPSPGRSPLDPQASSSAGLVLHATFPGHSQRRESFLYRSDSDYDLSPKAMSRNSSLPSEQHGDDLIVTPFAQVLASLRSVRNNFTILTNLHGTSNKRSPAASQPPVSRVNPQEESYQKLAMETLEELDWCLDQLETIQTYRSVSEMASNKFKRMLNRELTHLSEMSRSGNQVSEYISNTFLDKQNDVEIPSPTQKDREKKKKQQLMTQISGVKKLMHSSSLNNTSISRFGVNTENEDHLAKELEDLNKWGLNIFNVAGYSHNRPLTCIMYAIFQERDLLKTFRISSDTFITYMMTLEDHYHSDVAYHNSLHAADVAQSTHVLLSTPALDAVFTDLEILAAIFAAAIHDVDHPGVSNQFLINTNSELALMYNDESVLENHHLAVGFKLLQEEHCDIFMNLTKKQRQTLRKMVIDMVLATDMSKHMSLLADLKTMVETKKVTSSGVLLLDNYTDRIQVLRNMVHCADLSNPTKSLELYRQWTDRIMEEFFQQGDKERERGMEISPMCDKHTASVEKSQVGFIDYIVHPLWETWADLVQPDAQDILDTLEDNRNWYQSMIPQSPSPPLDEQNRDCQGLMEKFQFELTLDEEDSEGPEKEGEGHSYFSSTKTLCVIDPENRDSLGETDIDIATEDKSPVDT
T2 sequence (Q08499 whole entry): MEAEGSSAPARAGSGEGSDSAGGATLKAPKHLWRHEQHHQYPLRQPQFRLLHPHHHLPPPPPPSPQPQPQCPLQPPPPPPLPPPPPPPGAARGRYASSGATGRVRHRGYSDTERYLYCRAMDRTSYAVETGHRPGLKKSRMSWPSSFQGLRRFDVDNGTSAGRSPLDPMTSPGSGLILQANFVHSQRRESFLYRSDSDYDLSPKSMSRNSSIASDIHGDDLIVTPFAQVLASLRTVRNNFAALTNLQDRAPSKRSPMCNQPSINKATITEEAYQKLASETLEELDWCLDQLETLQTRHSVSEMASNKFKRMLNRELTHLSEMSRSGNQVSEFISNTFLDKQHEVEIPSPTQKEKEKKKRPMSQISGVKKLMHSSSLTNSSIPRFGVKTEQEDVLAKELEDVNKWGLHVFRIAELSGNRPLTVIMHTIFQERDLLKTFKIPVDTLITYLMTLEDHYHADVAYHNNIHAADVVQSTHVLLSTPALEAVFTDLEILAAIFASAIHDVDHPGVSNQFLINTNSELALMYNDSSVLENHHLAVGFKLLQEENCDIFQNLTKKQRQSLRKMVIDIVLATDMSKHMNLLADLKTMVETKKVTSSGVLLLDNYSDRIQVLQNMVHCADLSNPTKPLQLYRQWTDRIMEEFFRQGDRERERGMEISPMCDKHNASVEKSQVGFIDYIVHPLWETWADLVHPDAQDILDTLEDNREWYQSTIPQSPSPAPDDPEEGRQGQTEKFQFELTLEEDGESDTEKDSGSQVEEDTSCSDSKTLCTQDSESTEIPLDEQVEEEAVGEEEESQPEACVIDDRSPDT

One may read the pIC50 as the IC50 on a negative log10 scale, so that one unit is a factor of ten. With `COc1ccc([C@@H]2CN(C(=O)[C@@H](O)CO)C[C@@]2(C)[C@@H](C)O)cc1OC1CN(c2ccc(C)c(C#N)n2)C1` [Compound 003, 6-(3-(5-((3S,4S)-1-((S)-2,3-dihydroxypropanoyl)-4-((R)-1-hydroxyethyl)-4-methylpyrrolidin-3-yl)-2-methoxyphenoxy)azetidin-1-yl)-3-methylpicolinonitrile], the pIC50 at PDE4B was 9.39; against PDE4D, 9.41; in assay [1] (Homo sapiens, PBMC), 8.83. Also, the “IC50 (PDE4D)/IC50 (PDE4B)” value at PDE4B was 0.95.

In the case of `COc1ccc([C@@H]2CN(C(=O)[C@@H](O)CO)C[C@@]2(C)[C@@H](C)O)cc1OC1CN(c2ncc(C)cc2Cl)C1` [Compound 005, (S)-1-((3S,4S)-4-(3-((1-(3-chloro-5-methylpyridin-2-yl)azetidin-3-yl)oxy)-4-methoxyphenyl)-3-((R)-1-hydroxyethyl)-3-methylpyrrolidin-1-yl)-2,3-dihydroxypropan-1-one], on PDE4B, the “inhibition of PDE4B (in words)” value is reported as “effectively inhibit PDE4B” and the “selective inhibitory activity against PDE4B versus PDE4D, compared with the positive control compound (in words)” value is reported as “significantly higher than that control compound”. The pIC50 in assay [1] (Homo sapiens, PBMC) is 8.21.

As to `COc1ccc([C@@H]2CN(C(=O)[C@@H](O)CO)C[C@@]2(C)[C@@H](C)O)cc1OC1CN(c2ncc(C)cc2C#N)C1` [Compound 006, 2-(3-(5-((3S,4S)-1-((S)-2,3-dihydroxypropanoyl)-4-((R)-1-hydroxyethyl)-4-methylpyrrolidin-3-yl)-2-methoxyphenoxy)azetidin-1-yl)-5-methylnicotinonitrile], the pIC50 on PDE4B was 8.86; against PDE4D it was 8.87; in assay [1] (Homo sapiens, PBMC), 8.60. Moreover, the “IC50 (PDE4D)/IC50 (PDE4B)” value at PDE4B stood at 0.98.

Turning to `COc1ccc([C@@H]2CN(C(=O)[C@@H](O)CO)C[C@@]2(C)[C@@H](C)O)cc1OC1CN(c2cc(C)c(C#N)cn2)C1` [Compound 012, 6-(3-(5-((3S,4S)-1-((S)-2,3-dihydroxypropanoyl)-4-((R)-1-hydroxyethyl)-4-methylpyrrolidin-3-yl)-2-methoxyphenoxy)azetidin-1-yl)-4-methylnicotinonitrile], the pIC50 on PDE4B is 8.68; at PDE4D it was 9.25; in assay [1] (Homo sapiens, PBMC), 8.60. The “IC50 (PDE4D)/IC50 (PDE4B)” value on PDE4B is on record as 0.27.

`COc1ccc([C@@H]2CN(C(=O)[C@@H](O)CO)C[C@@]2(C)[C@@H](C)O)cc1OC1CN(c2ncc(F)cc2Cl)C1` [Compound 014, (S)-1-((3S,4S)-4-(3-((1-(3-chloro-5-fluoropyridin-2-yl)azetidin-3-yl)oxy)-4-methoxyphenyl)-3-((R)-1-hydroxyethyl)-3-methylpyrrolidin-1-yl)-2,3-dihydroxypropan-1-one]: the pIC50 was 8.18 against PDE4B; 8.22 against PDE4D; 7.82 in assay [1] (Homo sapiens, PBMC). On PDE4B, the “IC50 (PDE4D)/IC50 (PDE4B)” value came to 0.91.

`COc1ccc(N2CC(Oc3cc([C@@H]4CN(C(=O)[C@@H](O)CO)C[C@@]4(C)[C@@H](C)O)ccc3OC)C2)nc1` [Compound 015, (S)-2,3-dihydroxy-1-((3S,4S)-3-((R)-1-hydroxyethyl)-4-(4-methoxy-3-((1-(5-methoxypyridin-2-yl)azetidin-3-yl)oxy)phenyl)-3-methylpyrrolidin-1-yl)propan-1-one]: the pIC50 was 9.17 against PDE4B; 9.06 against PDE4D; 8.48 in assay [1] (Homo sapiens, PBMC). On PDE4B, the “IC50 (PDE4D)/IC50 (PDE4B)” value was 1.28.

For the compound `COc1ccc(N2CC(Oc3cc([C@@H]4CN(C(=O)[C@@H](O)CO)C[C@@]4(C)[C@@H](C)O)ccc3OC)C2)cn1` [Compound 020, (S)-2,3-dihydroxy-1-((3S,4S)-3-((R)-1-hydroxyethyl)-4-(4-methoxy-3-((1-(6-methoxypyridin-3-yl)azetidin-3-yl)oxy)phenyl)-3-methylpyrrolidin-1-yl)propan-1-one], the pIC50 against PDE4B was 8.71; in assay [1] (Homo sapiens, PBMC), 8.03.

On to `COc1ccc([C@@H]2CN(C(=O)[C@@H](O)CO)C[C@@]2(C)[C@@H](C)O)cc1OC1CN(c2ncc(C)cc2C)C1` [Compound 021, (S)-1-((3S,4S)-4-(3-((1-(3,5-dimethylpyridin-2-yl)azetidin-3-yl)oxy)-4-methoxyphenyl)-3-((R)-1-hydroxyethyl)-3-methylpyrrolidin-1-yl)-2,3-dihydroxypropan-1-one], for which the pIC50 at PDE4B is 8.38; against PDE4D it was 7.83; in assay [1] (Homo sapiens, PBMC), 7.85. Moreover, on PDE4B, the “IC50 (PDE4D)/IC50 (PDE4B)” value is given as 3.59.

For the compound `COc1ccc([C@@H]2CN(C(=O)[C@@H](O)CO)C[C@@]2(C)[C@@H](C)O)cc1OC1CN(c2ncc(Cl)cc2C)C1` [Compound 023, (S)-1-((3S,4S)-4-(3-((1-(5-chloro-3-methylpyridin-2-yl)azetidin-3-yl)oxy)-4-methoxyphenyl)-3-((R)-1-hydroxyethyl)-3-methylpyrrolidin-1-yl)-2,3-dihydroxypropan-1-one], the pIC50 is 8.89 against PDE4B and 8.27 in assay [1] (Homo sapiens, PBMC).

With `COc1ccc([C@@H]2CN(C(=O)[C@@H](O)CO)C[C@@]2(C)[C@@H](C)O)cc1OC1CN(c2ncc(Cl)cc2F)C1` [Compound 024, (S)-1-((3S,4S)-4-(3-((1-(5-chloro-3-fluoropyridin-2-yl)azetidin-3-yl)oxy)-4-methoxyphenyl)-3-((R)-1-hydroxyethyl)-3-methylpyrrolidin-1-yl)-2,3-dihydroxypropan-1-one], on PDE4B, the “inhibition of PDE4B (in words)” value is given as “effectively inhibit PDE4B” and the “selective inhibitory activity against PDE4B versus PDE4D, compared with the positive control compound (in words)” value was “significantly higher than that control compound”. For the same compound, the pIC50 in assay [1] was 8.18.

Regarding `COc1ccc([C@@H]2CN(C(=O)[C@@H](O)CO)C[C@@]2(C)[C@@H](C)O)cc1OC1CN(c2cc(C)c(F)cn2)C1` [Compound 025, (S)-1-((3S,4S)-4-(3-((1-(5-fluoro-4-methylpyridin-2-yl)azetidin-3-yl)oxy)-4-methoxyphenyl)-3-((R)-1-hydroxyethyl)-3-methylpyrrolidin-1-yl)-2,3-dihydroxypropan-1-one], the pIC50 at PDE4B was 9.06; at PDE4D it was 8.67; in assay [1] (Homo sapiens, PBMC), 8.49. The “IC50 (PDE4D)/IC50 (PDE4B)” value on PDE4B worked out at 2.45.

In the case of `COc1ccc([C@@H]2CN(C(=O)[C@@H](O)CO)C[C@@]2(C)[C@@H](C)O)cc1OC1CN(c2ccc(F)c(C)n2)C1` [Compound 026, (S)-1-((3S,4S)-4-(3-((1-(5-fluoro-6-methylpyridin-2-yl)azetidin-3-yl)oxy)-4-methoxyphenyl)-3-((R)-1-hydroxyethyl)-3-methylpyrrolidin-1-yl)-2,3-dihydroxypropan-1-one], the pIC50 at PDE4B was 8.56; in assay [1] (Homo sapiens, PBMC) it was 7.83.

As for `CCc1nc(N2CC(Oc3cc([C@@H]4CN(C(=O)[C@@H](O)CO)C[C@@]4(C)[C@@H](C)O)ccc3OC)C2)ccc1C` [Compound 027, (S)-1-((3S,4S)-4-(3-((1-(6-ethyl-5-methylpyridin-2-yl)azetidin-3-yl)oxy)-4-methoxyphenyl)-3-((R)-1-hydroxyethyl)-3-methylpyrrolidin-1-yl)-2,3-dihydroxypropan-1-one], at PDE4B, the pIC50 was 7.84 and the “IC50 (PDE4D)/IC50 (PDE4B)” value is listed as 1.73. Also, at PDE4D, the pIC50 was 7.61.

For `COc1ccc([C@@H]2CN(C(=O)[C@@H](O)CO)C[C@@]2(C)[C@@H](C)O)cc1OC1CN(c2ccc(OC(C)C)cn2)C1` [Compound 028, (S)-2,3-dihydroxy-1-((3S,4S)-3-((R)-1-hydroxyethyl)-4-(3-((1-(5-isopropoxypyridin-2-yl)azetidin-3-yl)oxy)-4-methoxyphenyl)-3-methylpyrrolidin-1-yl)propan-1-one], the pIC50 against PDE4B is 8.65; against PDE4D it was 8.51; in assay [1] (Homo sapiens, PBMC), 8.53. In addition, the “IC50 (PDE4D)/IC50 (PDE4B)” value on PDE4B turned out to be 1.39.
